Test results: article PMC11249646, “Small-Molecule Disruptors of the Interaction between Calcium- and Integrin-Binding Protein 1 and Integrin αIIbβ3 as Novel Antiplatelet Agents” (ACS Pharmacology & Translational Science, 2024)
Read-outs that look alike come from different tables or passages of the source.

Tests used:
Format in all cases: binding
[1] = molecular target: T1, CIB1 and αIIb interaction (GST-CIB1 : F-αIIb peptide) (Homo sapiens, UniProt Q99828); assay: FP assay, 384-well format (screen); set-up: 384-well SCREEN Efficacy (%): concentration or dose not given beside the values; conditions: F-αIIb peptide; for 384-well SCREEN Confirm?: YES/NO; for IC50: read-out: 384-well SCREEN IC50
T1 construct: made in house; host or cells: BL-21 plus RIL cells (E. coli)
T1 sequence (Q99828 1-191): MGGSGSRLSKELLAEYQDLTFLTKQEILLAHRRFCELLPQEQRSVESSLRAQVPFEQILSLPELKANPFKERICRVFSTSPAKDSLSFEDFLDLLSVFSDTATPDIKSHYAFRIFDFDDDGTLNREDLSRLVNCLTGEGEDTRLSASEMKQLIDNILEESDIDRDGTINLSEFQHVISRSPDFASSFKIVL

[2] = molecular target: T2, GST-CIB1 : F-scrambled peptide (Homo sapiens, UniProt Q99828); assay: FP scrambled-peptide counter screen, 384-well format; conditions: F-scrambled peptide; for IC50: read-out: 384-well COUNTERSCREEN IC50; for 384-well COUNTERSCREEN Confirm?: *: Curve in opposite direction
T2 construct: made in house; host or cells: BL-21 plus RIL cells (E. coli)
T2 sequence (Q99828 1-191): T1 sequence (Q99828 1-191)

[3] = molecular target: T2, GST-CIB1 : F-scrambled peptide; assay: FP scrambled-peptide counter screen, 1536-well format; conditions: for COUNTERSCREEN Confirm?: YES/NO call
[4] = molecular target: T3, CIB1 and αIIb interaction (CIB1-GST : F-αIIb peptide) (Homo sapiens, UniProt Q99828); assay: FP assay, 1536-well qHTS format (primary and confirmatory screen); conditions: for CONFIRMATORY SCREEN Confirm?: YES/NO call; for CONFIRMATORY SCREEN Efficacy (%) / Efficacy (%): negative = inhibition
T3 construct: made in house; host or cells: BL-21 plus RIL cells (E. coli)
T3 sequence (Q99828 1-191): T1 sequence (Q99828 1-191)

[5] = scrambled-peptide counterscreen
[6] = scrambled-peptide counterscreen, qHTS curve class
[7] = confirmatory screen, qHTS curve class, negative sign = inhibitory curve
[8] = confirmatory screen, read-out: CONFIRMATORY SCREEN IC50
[9] = qHTS primary screen hits, Table S2
[10] = qHTS primary screen hits, Table S2, read-out: IC50
[11] = qHTS primary screen hits, Table S2, negative sign = inhibitory curve, several classes where COUNT > 1
[12] = scrambled-peptide counterscreen, read-out: COUNTERSCREEN IC50
[13] = qHTS FP screen hits, Table S2, read-out: IC50

| SMILES | 384-well SCREEN Efficacy (%) [1] [%] | 384-well SCREEN Confirm? [1] | IC50 [1] [µM] | 384-well COUNTERSCREEN Efficacy (%) [2] [%] | IC50 [2] [µM] | COUNTERSCREEN Efficacy (%) [3, 5] [%] | COUNTERSCREEN Confirm? [3, 5] | COUNTERSCREEN Curve Class [3, 6] | CONFIRMATORY SCREEN Confirm? ([4]; confirmatory screen) | CONFIRMATORY SCREEN Curve Class [4, 7] | CONFIRMATORY SCREEN Efficacy (%) ([4]; confirmatory screen) | IC50 [4, 8] [µM] | Efficacy (%) [4, 9] [%] | IC50 [4, 10] [µM] | 384-well COUNTERSCREEN Confirm? [2] | Curve Class [4, 11] | further results |
| --- | --- | --- | --- | --- | --- | --- | --- | --- | --- | --- | --- | --- | --- | --- | --- | --- | --- |
| O=C(Cc1ccc(Cl)c(Cl)c1)Nc1ccc(S(=O)(=O)Nc2ccon2)cc1.O=C(O)C(F)(F)F [NCGC00244858-03] | 35 | YES | 8.9 | 43 | 25.1 | -10 | YES | 4 | YES | -1.4 | -39 | 22.4 | -27 | 3.2 |  |  | Curve Class ([4]; qHTS primary screen hits, Table S2, negative sign = inhibitory curve): -1.4 |
| O=C(O)C(F)(F)F.OCc1ccc(-c2ccc3ncnc(NCc4cccs4)c3c2)o1 [NCGC00189276-01] | 72 | YES | 12.6 | 34 | > 120 | 0 | YES | 4 | YES | -1.2 | -62 |  | -57 | 25.1 | YES | -1.2 |  |
| O=C(Nc1nc(-c2ccccc2)cs1)c1ccncc1NS(=O)(=O)c1cccc2cccnc12.O=C(O)C(F)(F)F [NCGC00344938-01] | 16 | YES | 6.3 | 18 | > 120 | -33 | YES | -2.4 | YES | -2.2 | -93 | 35.5 | -56 | 39.8 | YES | -2.2 | IC50 [3, 12]: 70.8 µM |
| Cl.NC(CO)(CO)CCc1ccc(Sc2cccc(OCc3ccccc3)c2)cc1Cl [NCGC00250388-02] | 57 | YES | 31.6 | 17 | > 120 | -28 | YES | 4 | YES | -2.4 | -80 | 50.1 | -71 | 79.4 | YES | -2.2 |  |
| CCc1ccc(/C=C2/SC(=S)NC2=O)cc1 [NCGC00185994-01] | 44 | YES | 17.8 | 68 | > 120 | 0 | YES | 4 | YES | -1.1 | -93 | 8.9 |  |  | YES |  | Efficacy (%) ([4]; qHTS FP screen hits, Table S2): -43%; IC50 [4, 13]: 8.2 µM |
| CC(=O)N1CCN(c2ccc(OCc3nn(C)c(C)c3-c3cccc4c(CCCOc5cccc6ccccc56)c(C(=O)O)n(Cc5cccnc5)c34)cc2)CC1 [NCGC00347174-02] | 52 | YES | 28.2 | 15 | > 120 | -33 | YES | 4 | YES | -2.2 | -77 | 22.4 | -31 | 34.1 | YES | -2.4 |  |
| COc1nn(CSP(=S)(OC)OC)c(=O)s1 [NCGC00163724-03] | 80 | YES | 15.8 | 60 | > 120 | 0 | YES | 4 | YES | -1.4 | -47 | 20 | -47 | 58.6 | YES | -1.2 |  |
| CCOC(=O)c1nnc(NS(=O)(=O)c2ccc(NC(=O)Cc3ccc(Cl)c(Cl)c3)cc2)s1.O=C(O)C(F)(F)F [NCGC00248354-01] | 31 | YES | 28.2 | 20 | > 120 | 66 | YES |  | YES | -1.2 | -47 | 15.8 |  |  | YES |  | IC50 [3, 12]: 44.7 µM |
| Cl.O=C1c2c(O)ccc(O)c2C(=O)c2c(NCCNCCO)ccc(NCCNCCO)c21 [NCGC00015693-04] | 80 | YES | 4.1 | 75 | 5.8 |  |  |  |  |  |  |  |  |  |  |  | Efficacy (%) (counterscreen) ([3]; counterscreen): -125%; Curve Class (counterscreen) ([3]; counterscreen, qHTS curve class, negative sign = inhibitory curve): -1.1; IC50 ([3]; counterscreen, read-out: IC50 [μM] (counterscreen)): 20 µM; Efficacy (%) (confirmatory screen) ([4]; confirmatory screen): -112%; Confirm? (confirmatory screen) ([4]; confirmatory screen, YES/NO): YES; Curve Class (confirmatory screen) [4, 7]: -1.1; IC50 ([4]; confirmatory screen, read-out: IC50 [μM] (confirmatory screen)): 20 µM; Efficacy (%) ([4]; qHTS FP screen hits, Table S2): -85%; IC50 [4, 13]: 25.2 µM |
| Cc1ccc(C)n1-c1cccc(C(=O)O)c1.O=C(O)C(F)(F)F [NCGC00060597-02] | 30 | YES | 17.7 | 24 | > 120 | -11 | YES | 4 | YES | -1.2 | -42 | 8.9 |  |  | YES |  |  |
